Data published in publication PMC3411833, “The Two PPX-GppA Homologues from Mycobacterium tuberculosis Have Distinct Biochemical Activities” (PLoS ONE, 2012).

Key:
MTB-PPX1 (Rv0496) [1] = target: T1, MTB-PPX1 (Rv0496) (Mycobacterium tuberculosis, UniProt P9WHV5)
Rv1026 = target: T2, Rv1026 (Mycobacterium tuberculosis, UniProt P96374)
T2 construct: gene ppx2

MTB-PPX1 (Rv0496) [2] = target: T1, MTB-PPX1 (Rv0496); remark: listed apart in the source

T1 sequence (P9WHV5 whole entry): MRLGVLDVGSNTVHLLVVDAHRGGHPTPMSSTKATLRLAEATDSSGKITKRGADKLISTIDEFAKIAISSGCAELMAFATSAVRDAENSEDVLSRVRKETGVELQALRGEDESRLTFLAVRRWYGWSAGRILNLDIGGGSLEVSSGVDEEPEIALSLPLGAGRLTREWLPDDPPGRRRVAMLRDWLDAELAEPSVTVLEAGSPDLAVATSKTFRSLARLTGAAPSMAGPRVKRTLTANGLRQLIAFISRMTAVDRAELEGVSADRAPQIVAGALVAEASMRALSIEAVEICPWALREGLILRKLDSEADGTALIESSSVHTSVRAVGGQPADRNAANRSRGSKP
T2 sequence (P96374 whole entry): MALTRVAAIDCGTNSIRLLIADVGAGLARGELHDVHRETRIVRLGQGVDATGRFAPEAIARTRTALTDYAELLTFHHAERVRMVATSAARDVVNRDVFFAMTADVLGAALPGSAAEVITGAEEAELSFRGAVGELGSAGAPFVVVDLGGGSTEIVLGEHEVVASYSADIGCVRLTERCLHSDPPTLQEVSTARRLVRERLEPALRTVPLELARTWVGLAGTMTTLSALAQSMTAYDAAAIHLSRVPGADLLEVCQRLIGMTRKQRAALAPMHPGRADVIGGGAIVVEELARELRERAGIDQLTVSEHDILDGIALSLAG

Compound	Exopolyphosphatase activities / +1 mM ppGpp / (% decrease) / ATPase activities (MTB-PPX1 (Rv0496) [1]) [%]	Exopolyphosphatase activities / +1 mM pppGpp / (% decrease) / ATPase activities (Rv1026) [%]	Exopolyphosphatase activities / +1 mM pppGpp / (% decrease) / ATPase activities (MTB-PPX1 (Rv0496) [2]) [%]
Nc1nc2c(ncn2[C@@H]2O[C@H](COP(=O)(O)OP(=O)(O)O)[C@@H](OP(=O)(O)OP(=O)(O)O)[C@H]2O)c(=O)[nH]1 [ppGpp, guanosine 3′,5′-bisdiphosphate]	5.9±0.7	–	–
Nc1nc2c(ncn2[C@@H]2O[C@H](COP(=O)(O)OP(=O)(O)OP(=O)(O)O)[C@@H](OP(=O)(O)OP(=O)(O)O)[C@H]2O)c(=O)[nH]1 [pppGpp, guanosine 5′-triphosphate, 3′-diphosphate]	–	32.3±9.4	37.9±6.7
